{
  "source": "patent US20260248165A1",
  "about": "“A SWEETENER OR SWEETNESS ENHANCER COMPOSITION” (Analyticon Discovery – Zweigniederlassung der BRAIN Biotech …, priority 2022, published 2026)",
  "key": {"[1]": {"experiment": "Organoleptic test of the compounds against sucrose (intrinsic sweetness)", "format": "in vivo", "set-up": "key: 3: sweeter than the control solution; 2: sweetness comparable with the control solution; 1: less sweet than the control solution but still sweet; 0: no intrinsic sweetness", "conditions": "3-4 panelists; for Sweetness 50 ppm: compound 50 ppm in mineral water vs sucrose 20 g/l; for Sweetness 200 ppm: compound 200 ppm in mineral water vs sucrose 20 g/l", "method": "The isolated pure compounds were dissolved in non-carbonated mineral water (“Evian”) in a concentration of 0.2 mg/ml (200 ppm) and 0.05 mg/ml (50 ppm). The sweet taste of each sample was compared by a panel of 3-4 panelists with a solution of sucrose in a concentration of 20 g/l."}, "[2]": {"experiment": "Organoleptic comparison of Compound 1 with Millettiasaponin A", "format": "in vivo", "conditions": "both at 200 ppm and 50 ppm in mineral water; 4 panelists", "method": "Milettiasaponin A was published as sweet taste principle of an extract prepared from Derris eriocarpa (150× sweeter than sucrose) [J. Agric. Food Chem. 2017, 65, 2357-2363]. Milletiasaponin A has an additional hydroxyl group at C-24 compared to compound 1. Both compounds were dissolved in non-carbonated mineral water (“Evian”) in a concentration of 0.2 mg/ml (200 ppm) and 0.05 mg/ml (50 ppm). The sweet taste of both samples was compared by a panel of 4 panelists."}, "[3]": {"experiment": "Organoleptic test in combination with Rebaudioside M against Rebaudioside M (Rebaudioside M enhancement), 2-AFC", "format": "in vivo", "set-up": "key: 3: sweeter than the control solution; 2: sweetness comparable with the control solution; 1: less sweet than the control solution but still sweet; 0: no intrinsic sweetness", "conditions": "12 to 15 panelists; for Sweet taste enhancement, control solution Reb M 150 ppm: compound in 150 ppm Rebaudioside M solution vs Reb M 150 ppm; for Sweet taste enhancement, control solution Reb M 170 ppm: compound in 150 ppm Rebaudioside M solution vs Reb M 170 ppm; for Sweet taste enhancement, control solution Reb M 190 ppm: compound in 150 ppm Rebaudioside M solution vs Reb M 190 ppm; for Sweet taste enhancement, control solution Reb M 210 ppm: compound in 150 ppm Rebaudioside M solution vs Reb M 210 ppm", "method": "The isolated pure compounds were dissolved in non-carbonated mineral water (“Evian”) in a concentration of 50 ppm (0.05 mg/ml), 25 ppm (0.025 mg/ml), […] (0.0125 mg/ml) and […]. The sweet taste of each sample was detected by a panel of 3-4 panelists to detect the sweetness perception level. The highest concentration below the sweetness perception level was used for the evaluation of the sweet taste enhancement of Rebaudioside M.\nA solution of the isolated compound in a concentration below the sweetness perception level was dissolved in 150 ppm Rebaudioside M solution. […] E2164-16_Standard Test Method for Directional Difference Test). The panelists were trained to differentiate between the sweetness of a 150 ppm, 170 ppm, 190 ppm, and a 210 ppm Rebaudioside M solution."}, "[4]": {"experiment": "Organoleptic test in combination with sucrose against sucrose (sucrose enhancement), 2-AFC", "format": "in vivo", "set-up": "key: 3: sweeter than the control solution; 2: sweetness comparable with the control solution; 1: less sweet than the control solution but still sweet; 0: no intrinsic sweetness", "conditions": "12 to 15 panelists; for Sweet taste enhancement of sucrose, control solution Sucrose 6%: compound 50 ppm in 6% sucrose solution vs 6% sucrose; for Sweet taste enhancement of sucrose, control solution Sucrose 7%: compound 50 ppm in 6% sucrose solution vs 7% sucrose; for Sweet taste enhancement of sucrose, control solution Sucrose 8%: compound 50 ppm in 6% sucrose solution vs 8% sucrose; for Sweet taste enhancement of sucrose, control solution Sucrose 9%: compound 50 ppm in 6% sucrose solution vs 9% sucrose", "method": "The isolated pure compounds were dissolved in non-carbonated mineral water (“Evian”) in a concentration of 50 ppm (0.05 mg/ml), 25 ppm (0.025 mg/ml), […] (0.0125 mg/ml) and […] (0.00625 mg/ml). The sweet taste of each sample was detected by a panel of 4 panelists to detect the sweetness perception level. The highest concentration below the sweetness perception level was used for the evaluation of the sweet taste enhancement of sucrose.\nA solution of the isolated compound in a concentration below the sweetness perception level was dissolved in 6% sucrose solution. The sweet taste of this sample was compared to the sweet taste of a 6% sucrose solution by a panel of 12 to 15 panelists in a two-alternative forced-choice test (2-AFC. E2164-16_Standard Test Method for Directional Difference Test). The panelists were trained to differentiate between the sweetness of a 6%, 7%, 8%, and 9% sucrose solution. The sweetness of the solution of the enhancer in 6% sucrose was compared with sucrose solutions in concentrations of 6%, 7%, 8%, and 9%."}, "[5]": {"conditions": "J. Agric. Food Chem. 2017, 65, 2357-2363; cited from earlier work"}, "[6]": {"conditions": "5% sucrose in water; concentration of 100 μm; cited from earlier work"}},
  "data": [
    {"smiles": "CC(=O)O[C@@H]1C[C@](C)(C(=O)O)C[C@H]2C3=CCC4[C@@]5(C)CC[C@H](O[C@@H]6O[C@H](C(=O)O)[C@@H](O)[C@H](O)[C@H]6O[C@@H]6O[C@H](CO)[C@H](O)[C@H](O)[C@H]6O[C@@H]6O[C@@H](C)[C@H](O)[C@@H](O)[C@H]6O)C(C)(C)C5CC[C@@]4(C)[C@]3(C)CC[C@@]12C", "note": "(stereo partly shown) [Compound 1, 24-Desoxy- Millettiasaponin A]", "values": [
      {"measurement": "Sweetness 50 ppm", "setting": "[1]", "result": 3},
      {"measurement": "Sweetness 200 ppm", "setting": "[1]", "result": 3},
      {"measurement": "Sweet taste compared with Milletiasaponin A", "setting": "[2]", "result": "sweeter with less aftertaste than Milletiasaponin A"},
      {"measurement": "Sweet taste enhancement, control solution Reb M 150 ppm", "setting": "[3]", "result": 3},
      {"measurement": "Sweet taste enhancement, control solution Reb M 170 ppm", "setting": "[3]", "result": 3},
      {"measurement": "Sweet taste enhancement, control solution Reb M 190 ppm", "setting": "[3]", "result": 2},
      {"measurement": "Sweet taste enhancement, control solution Reb M 210 ppm", "setting": "[3]", "result": 2},
      {"measurement": "Sweet taste enhancement of sucrose, control solution Sucrose 6%", "setting": "[4]", "result": 3},
      {"measurement": "Sweet taste enhancement of sucrose, control solution Sucrose 7%", "setting": "[4]", "result": 3},
      {"measurement": "Sweet taste enhancement of sucrose, control solution Sucrose 8%", "setting": "[4]", "result": 3},
      {"measurement": "Sweet taste enhancement of sucrose, control solution Sucrose 9%", "setting": "[4]", "result": 3}
    ]},
    {"smiles": "CC1=C(C(=O)O[C@@H]2O[C@H](CO[C@@H]3OC[C@@H](O)[C@H](O)[C@H]3O)[C@@H](O)[C@H](O)[C@H]2O)C(C)(C)CCC1", "note": "[Compound 2, Jasminoside M]", "values": [
      {"measurement": "Sweetness 50 ppm", "setting": "[1]", "result": 0},
      {"measurement": "Sweetness 200 ppm", "setting": "[1]", "result": 0},
      {"measurement": "Sweet taste enhancement, control solution Reb M 150 ppm", "setting": "[3]", "result": 3},
      {"measurement": "Sweet taste enhancement, control solution Reb M 170 ppm", "setting": "[3]", "result": 3},
      {"measurement": "Sweet taste enhancement, control solution Reb M 190 ppm", "setting": "[3]", "result": 2},
      {"measurement": "Sweet taste enhancement, control solution Reb M 210 ppm", "setting": "[3]", "result": 1},
      {"measurement": "Sweet taste enhancement of sucrose, control solution Sucrose 6%", "setting": "[4]", "result": 3},
      {"measurement": "Sweet taste enhancement of sucrose, control solution Sucrose 7%", "setting": "[4]", "result": 3},
      {"measurement": "Sweet taste enhancement of sucrose, control solution Sucrose 8%", "setting": "[4]", "result": 3},
      {"measurement": "Sweet taste enhancement of sucrose, control solution Sucrose 9%", "setting": "[4]", "result": 2}
    ]},
    {"smiles": "COc1cc([C@H]2c3cc(O)c(OC)cc3C[C@@H](CO[C@@H]3O[C@H](CO)[C@@H](O)[C@H](O)[C@H]3O)[C@@H]2CO)ccc1O", "note": "[Compound 3, Isolariciresinol 9-glucoside]", "values": [
      {"measurement": "Sweetness 50 ppm", "setting": "[1]", "result": 0},
      {"measurement": "Sweetness 200 ppm", "setting": "[1]", "result": 0},
      {"measurement": "Sweet taste enhancement, control solution Reb M 150 ppm", "setting": "[3]", "result": 3},
      {"measurement": "Sweet taste enhancement, control solution Reb M 170 ppm", "setting": "[3]", "result": 3},
      {"measurement": "Sweet taste enhancement, control solution Reb M 190 ppm", "setting": "[3]", "result": 2},
      {"measurement": "Sweet taste enhancement, control solution Reb M 210 ppm", "setting": "[3]", "result": 1},
      {"measurement": "Sweet taste enhancement of sucrose, control solution Sucrose 6%", "setting": "[4]", "result": 3},
      {"measurement": "Sweet taste enhancement of sucrose, control solution Sucrose 7%", "setting": "[4]", "result": 3},
      {"measurement": "Sweet taste enhancement of sucrose, control solution Sucrose 8%", "setting": "[4]", "result": 3},
      {"measurement": "Sweet taste enhancement of sucrose, control solution Sucrose 9%", "setting": "[4]", "result": 2}
    ]},
    {"smiles": "CCCCCc1cc2cc(O)cc(Oc3c(O)cc(O)cc3CCCCC)c2c(=O)o1", "note": "[Compound 4, Physodone]", "values": [
      {"measurement": "Sweetness 50 ppm", "setting": "[1]", "result": 0},
      {"measurement": "Sweetness 200 ppm", "setting": "[1]", "result": 0},
      {"measurement": "Sweet taste enhancement, control solution Reb M 150 ppm", "setting": "[3]", "result": 3},
      {"measurement": "Sweet taste enhancement, control solution Reb M 170 ppm", "setting": "[3]", "result": 3},
      {"measurement": "Sweet taste enhancement, control solution Reb M 190 ppm", "setting": "[3]", "result": 3},
      {"measurement": "Sweet taste enhancement, control solution Reb M 210 ppm", "setting": "[3]", "result": 1},
      {"measurement": "Sweet taste enhancement of sucrose, control solution Sucrose 6%", "setting": "[4]", "result": 3},
      {"measurement": "Sweet taste enhancement of sucrose, control solution Sucrose 7%", "setting": "[4]", "result": 3},
      {"measurement": "Sweet taste enhancement of sucrose, control solution Sucrose 8%", "setting": "[4]", "result": 3},
      {"measurement": "Sweet taste enhancement of sucrose, control solution Sucrose 9%", "setting": "[4]", "result": 2}
    ]},
    {"smiles": "CC(=O)O[C@@H]1C[C@](C)(C(=O)O)C[C@H]2C3=CCC4[C@@]5(C)CC[C@H](O[C@@H]6O[C@H](C(=O)O)[C@@H](O)[C@H](O)[C@H]6O[C@@H]6O[C@H](CO)[C@H](O)[C@H](O)[C@H]6O[C@@H]6O[C@@H](C)[C@H](O)[C@@H](O)[C@H]6O)[C@](C)(CO)C5CC[C@@]4(C)[C@]3(C)CC[C@@]12C", "note": "(stereo partly shown) [Milettiasaponin A]", "values": [
      {"measurement": "Sweetness relative to sucrose", "setting": "[5]", "result": 150, "unit": "× sweeter than sucrose"}
    ]},
    {"smiles": "COc1ccc([C@@H]2CC(=O)c3c(O)cc(O)cc3O2)cc1O", "note": "[hesperetin]", "values": [
      {"measurement": "Enhancement of the sweetness of sucrose", "setting": "[6]", "result": 41, "unit": "%"}
    ]}
  ]
}
